Legend:
Hepatitis C virus [1] = assay: Antiviral activity against HCV 1b infected in human hepatoma cells by replicon assay; assay type: functional, organism-based, Hepacivirus hominis; settings: genotype 1b
Hepatitis C virus [2] = assay: Antiviral activity against HCV 1a infected in human hepatoma cells by replicon assay; assay type: functional, organism-based, Hepacivirus hominis; settings: subtype 1a
[3] = Inhibition of HCV 1a NS3/4A protease by FRET assay; design: species or system Hepatitis C virus subtype 1a

EC50 (Hepatitis C virus [1]) [µM] | EC50 (Hepatitis C virus [2]) [nM] | IC50 [3] [nM] | Structure (SMILES)
> 10 | 8700 |  | CC(C)(C)[C@H](NC(=O)OC1CCCC1)C(=O)N1C[C@H](OC(=O)N2Cc3cccc(F)c3C2)C[C@H]1C(=O)N[C@@H]1BOCC1
0.354 | 780 | 43 | CC1(C)CCCCc2cccc3c2CN(C3)C(=O)O[C@@H]2C[C@@H](C(=O)N[C@@H]3BOCC3)N(C2)C(=O)[C@H](C(C)(C)C)NC(=O)OC1
4.2 | 980 | 110 | CC1(C)CCCCc2cccc3c2CN(C3)C(=O)O[C@@H]2C[C@@H](C(=O)N[C@@H]3BOC[C@@H]3C3CC3)N(C2)C(=O)[C@H](C(C)(C)C)NC(=O)OC1
> 50 | 11000 | 1400 | CC1(C)CCCCc2cccc3c2CN(C3)C(=O)O[C@@H]2C[C@@H](C(=O)N[C@H]3BOCC3)N(C2)C(=O)[C@H](C(C)(C)C)NC(=O)OC1
30 | 33000 | 25000 | C[C@@H]1COB[C@@H]1NC(=O)[C@@H]1C[C@@H]2CN1C(=O)[C@H](C(C)(C)C)NC(=O)OCC(C)(C)CCCCc1cccc3c1CN(C3)C(=O)O2
3.9 | 3700 | 300 | CC1(C)CCCCc2cccc3c2CN(C3)C(=O)O[C@@H]2C[C@@H](C(=O)N[C@@H]3CCCCOB3O)N(C2)C(=O)[C@H](C(C)(C)C)NC(=O)OC1

Further lines, the compound ahead of its results:

Structure (SMILES) | EC50 (Hepatitis C virus [1]) [µM] | EC50 (Hepatitis C virus [2]) [nM] | IC50 [3] [nM]
C[C@H]1COB[C@H]1NC(=O)[C@@H]1C[C@@H]2CN1C(=O)[C@H](C(C)(C)C)NC(=O)OCC(C)(C)CCCCc1cccc3c1CN(C3)C(=O)O2 | 1.7 | 1900 | 130
CC1(C)CCCCc2cccc3c2CN(C3)C(=O)O[C@@H]2C[C@@H](C(=O)N[C@H]3CCCOB3O)N(C2)C(=O)[C@H](C(C)(C)C)NC(=O)OC1 | 2.8 | 1300 | 62
CC1(C)CCCCc2cccc3c2CN(C3)C(=O)O[C@@H]2C[C@@H](C(=O)N[C@H]3CCCCOB3O)N(C2)C(=O)[C@H](C(C)(C)C)NC(=O)OC1 | 0.2 | 380 | 47
CC1(C)CCCCc2cccc3c2CN(C3)C(=O)O[C@@H]2C[C@@H](C(=O)N[C@@H]3CCCOB3O)N(C2)C(=O)[C@H](C(C)(C)C)NC(=O)OC1 | > 25 | 12000 | 1300
CC[C@@H]1C[C@]1(NC(=O)[C@@H]1C[C@@H]2CN1C(=O)[C@H](C(C)(C)C)NC(=O)OCC(C)(C)CCCCc1cccc3c1CN(C3)C(=O)O2)C(=O)NS(=O)(=O)C1CC1 | ≤ 0.001 | ≤ 1 | 
